Results as given in patent US20100184684A1, “ANTIBACTERIAL AND ANTIFUNGAL PEPTIDES” (C3 JIAN, INC., priority 2009, published 2010).
≈ marks a conversion by molar mass, not a printed value. Read-outs that look alike come from different tables or passages of the source. Ends that are not written are not given here. Peptide text beside a SMILES is read from it.

What was measured:
[1] = tested on: T. rubrum; type: cell-based, Trichophyton rubrum
Experimental: (§1) In certain embodiments the MIC assays are performed as described herein in the Examples. For each organism, the media and growth conditions utilized is detailed in Table 8.
(§2) In certain embodiments the MIC assays are performed as follows: For each organism, the media and growth conditions utilized is detailed in Table 8.

[2] = tested on: S. epidermidis; type: cell-based
Experimental: as §1, §2

[3] = tested on: C. albicans; type: cell-based, Candida albicans
Experimental: as §1, §2

[4] = tested on: C. difficile; type: cell-based, Clostridium difficile
Experimental: as §1, §2

[5] = tested on: P. aeruginosa; type: cell-based, Pseudomonas aeruginosa; conditions: P. aeruginosa; MH, 37° C., aerobic, 10^5 CFU/ml
Experimental: as §1, §2

[6] = tested on: MRSA; type: cell-based, Staphylococcus aureus; conditions: MRSA; BHI supplemented with 2% glucose, 37° C., aerobic, 10^5 CFU/ml
Experimental: as §1, §2

[7] = tested on: A. niger; type: cell-based, Aspergillus niger
Experimental: as §1, §2

[8] = tested on: S. mutans; type: cell-based, Streptococcus mutans
Experimental: as §1, §2

[9] = tested on: E. coli; type: cell-based, Escherichia coli
Experimental: as §1, §2

[10] = tested on: S. pneumoniae; type: cell-based, Streptococcus pneumoniae
Experimental: as §1, §2

[11] = tested on: B. subtilis; type: cell-based, Bacillus subtilis
Experimental: as §1, §2

[12] = tested on: P. gingivalis; type: cell-based, Porphyromonas gingivalis
Experimental: as §1, §2

[13] = tested on: A. naeslundii; type: cell-based, Actinomyces naeslundii
Experimental: as §1, §2

[14] = tested on: A. baumannii; type: cell-based, Acinetobacter baumannii; conditions: A. baumannii; LB, 30° C., anaerobic, 10^5 CFU/ml
Experimental: as §1, §2

What does the source list for `CC[C@H](C)[C@H](NC(=O)[C@H](CCCCN)NC(=O)[C@H](C)NC(=O)[C@H](Cc1ccccc1)NC(=O)[C@@H](NC(=O)[C@H](C)NC(=O)[C@H](CC(C)C)NC(=O)[C@H](CO)NC(=O)[C@@H](N)CC(C)C)[C@@H](C)O)C(=O)N[C@@H](Cc1ccccc1)C(=O)N[C@@H](CCSC)C(=O)N[C@H](C(=O)N[C@@H](CCCNC(=N)N)C(=O)N[C@@H](CO)C(=O)N[C@@H](CC(N)=O)C(=O)N[C@@H](Cc1c[nH]c2ccccc12)C(=O)N[C@@H](CO)C(=O)N[C@@H](CC(C)C)C(=O)N[C@@H](CCCCN)C(=O)N[C@@H](CCCNC(=N)N)C(=O)N[C@@H](Cc1ccccc1)C(=O)N[C@@H](CC(N)=O)C(=O)N[C@@H](CCCNC(=N)N)C(=O)N[C@@H](CC(C)C)C(=O)O)[C@@H](C)O` [PF-278] (H-LSLATFAKIFMTRSNWSLKRFNRL-OH; N-terminus and C-terminus assumed)?
MIC [1]: 50 µM; MIC [2]: 50 µM; MIC [3]: 50 µM

For `CC[C@H](C)[C@H](NC(=O)[C@H](CCCCN)NC(=O)CNC(=O)[C@H](CC(C)C)NC(=O)[C@H](CC(N)=O)NC(=O)[C@@H](NC(=O)[C@H](CCC(=O)O)NC(=O)[C@H](CC(C)C)NC(=O)[C@H](Cc1c[nH]c2ccccc12)NC(=O)[C@H](CC(=O)O)NC(=O)[C@@H](NC(=O)[C@H](CC(C)C)NC(=O)[C@H](CCC(=O)O)NC(=O)[C@@H](N)Cc1ccccc1)C(C)C)[C@@H](C)O)C(=O)N[C@@H](CC(C)C)C(=O)N[C@@H](CCCCN)C(=O)N[C@@H](CO)C(=O)N[C@@H](CCCCN)C(=O)N[C@@H](CO)C(=O)N[C@@H](C)C(=O)O` [PF-522] (H-FELVDWLETNLGKILKSKSA-OH; N-terminus and C-terminus assumed), which MIC [4] is on record?
Its MIC is 25 µM (≈ 57.3 µg/mL).

For `CC(C)[C@H](NC(=O)[C@@H](N)Cc1ccc(O)cc1)C(=O)N[C@@H](CC(N)=O)C(=O)N[C@@H](Cc1ccc(O)cc1)C(=O)N[C@@H](CC(N)=O)C(=O)N[C@@H](CCC(N)=O)C(=O)N[C@@H](CO)C(=O)N[C@@H](Cc1ccccc1)C(=O)N[C@@H](CC(N)=O)C(=O)N[C@@H](CO)C(=O)NCC(=O)N[C@@H](Cc1c[nH]c2ccccc12)C(=O)O` [PF-C220] (H-YVNYNQSFNSGW-OH; N-terminus and C-terminus assumed), which MIC [3] is on record?
Its MIC is 50 µM (≈ 73.9 µg/mL).

`CC[C@H](C)[C@H](NC(=O)[C@H](CCCNC(=N)N)NC(=O)[C@@H](NC(=O)[C@H](CCCCN)NC(=O)[C@H](CCCCN)NC(=O)[C@H](CC(C)C)NC(=O)[C@H](CC(C)C)NC(=O)[C@H](CCCCN)NC(=O)[C@H](CCCNC(=N)N)NC(=O)[C@H](Cc1c[nH]cn1)NC(=O)[C@H](CCCCN)NC(=O)[C@H](CCCCN)NC(=O)[C@H](CCCCN)NC(=O)[C@H](C)NC(=O)[C@H](CCSC)NC(=O)[C@H](CCCNC(=N)N)NC(=O)[C@H](CCCCN)NC(=O)[C@H](CCCNC(=N)N)NC(=O)[C@H](CCCNC(=N)N)NC(=O)[C@H](CCCCN)NC(=O)[C@H](CCCCN)NC(=O)[C@@H](NC(=O)[C@@H](NC(=O)[C@H](CO)NC(=O)CN)C(C)C)[C@@H](C)CC)[C@@H](C)O)C(=O)N[C@@H](CCC(N)=O)C(=O)N[C@@H](CCCNC(=N)N)C(=O)N[C@@H](CCCNC(=N)N)C(=O)N[C@@H](CCCNC(=N)N)C(=O)N[C@@H](C)C(=O)NCC(=O)N[C@@H](CCCCN)C(=O)O` [PF-527] (H-GSVIKKRRKRMAKKKHRKLLKKTRIQRRRAGK-OH; N-terminus and C-terminus assumed) was tested. Which MIC [5] did it give?
The MIC was 50 µM (≈ 197 µg/mL).

And the MIC ([1]; T. rubrum, Potato Dextrose Agar, 25° C., aerobic, 10^5 CFU/ml)?
Its MIC is 25 µM (≈ 98.5 µg/mL).

And the MIC [6]?
The MIC was 50 µM (≈ 197 µg/mL).

And the MIC ([2]; S. epidermidis, BHI supplemented with 0.25% glucose, 37° C., aerobic, 10^5 CFU/ml)?
Its MIC is 25 µM (≈ 98.5 µg/mL).

What about the MIC ([7]; A. niger, Potato Dextrose Agar, 25° C., aerobic, 10^5 CFU/ml) of the same molecule?
Its MIC is 50 µM (≈ 197 µg/mL).

How did the MIC [1] turn out when `CC[C@H](C)[C@H](NC(=O)[C@H](CCCNC(=N)N)NC(=O)[C@@H]1CCCN1C(=O)[C@H](CCC(=O)O)NC(=O)[C@H](CC(C)C)NC(=O)[C@@H]1CCCN1C(=O)[C@H](CC(=O)O)NC(=O)[C@@H](N)CC(C)C)C(=O)N[C@@H](C)C(=O)N1CCC[C@H]1C(=O)N1CCC[C@H]1C(=O)NCC(=O)N[C@@H](CC(=O)O)C(=O)N[C@@H](CCCNC(=N)N)C(=O)N[C@@H](CO)C(=O)N[C@@H](Cc1c[nH]cn1)C(=O)N[C@@H](CCC(N)=O)C(=O)NCC(=O)N[C@@H](C)C(=O)N1CCC[C@H]1C(=O)N[C@@H](C)C(=O)N[C@@H](CS)C(=O)N[C@@H](Cc1c[nH]cn1)C(=O)N[C@@H](CCCNC(=N)N)C(=O)N[C@@H](CC(=O)O)C(=O)N1CCC[C@H]1C(=O)N[C@@H](CC(C)C)C(=O)N[C@@H](CCCNC(=N)N)C(=O)NCC(=O)N[C@@H](CCCNC(=N)N)C(=O)N[C@@H](CO)C(=O)N[C@@H](C)C(=O)N[C@@H](CCCNC(=N)N)C(=O)N[C@@H](CC(=O)O)C(=O)N[C@@H](C)C(=O)N[C@@H](CCC(=O)O)C(=O)N[C@@H](CCCNC(=N)N)C(=O)O` [PF-C019] (H-LDPLEPRIAPPGDRSHQGAPACHRDPLRGRSARDAER-OH; N-terminus and C-terminus assumed) was run?
Its MIC is 50 µM (≈ 204 µg/mL).

What about the MIC [8] of the same molecule?
The MIC was 25 µM (≈ 102 µg/mL).

What about the MIC [7] of the same molecule?
The MIC was 50 µM (≈ 204 µg/mL).

With “TKKIELKRFVDAFVKKSYENYILERELKKLIKAINEELPTK [PF-600]” as the molecule, how does the MIC [9] read?
The MIC was 50 µM.

What about the MIC [10] of the same molecule?
The MIC was 50 µM.

Which MIC [1] does the source give for `CC(C)[C@H](NC(=O)[C@H](CCCCN)NC(=O)[C@H](Cc1c[nH]c2ccccc12)NC(=O)CNC(=O)[C@@H](NC(=O)[C@H](CC(=O)O)NC(=O)[C@H](CO)NC(=O)[C@H](Cc1c[nH]cn1)NC(=O)CNC(=O)[C@@H]1CCCN1C(=O)[C@@H](NC(=O)[C@H](CCCNC(=N)N)NC(=O)[C@H](CO)NC(=O)[C@@H](N)Cc1c[nH]c2ccccc12)C(C)C)[C@@H](C)O)C(=O)N[C@@H](Cc1c[nH]c2ccccc12)C(=O)N[C@@H](Cc1c[nH]cn1)C(=O)N[C@@H](CCCNC(=N)N)C(=O)N[C@@H](Cc1c[nH]c2ccccc12)C(=O)O` [PF-547] (H-WSRVPGHSDTGWKVWHRW-OH; N-terminus and C-terminus assumed) here?
Its MIC is 25 µM (≈ 56.9 µg/mL).

What about the MIC [11] of the same molecule?
The MIC was 25 µM (≈ 56.9 µg/mL).

What about the MIC [8] of the same molecule?
The MIC was 12.5 µM (≈ 28.5 µg/mL).

For `CC[C@H](C)[C@H](NC(=O)[C@H](CO)NC(=O)[C@H](CC(N)=O)NC(=O)[C@H](CCCNC(=N)N)NC(=O)[C@H](CC(N)=O)NC(=O)[C@H](CC(C)C)NC(=O)[C@H](CCCCN)NC(=O)[C@H](CCCCN)NC(=O)[C@H](CCCCN)NC(=O)[C@@H](NC(=O)[C@@H]1CCCN1C(=O)[C@H](CO)NC(=O)[C@H](CCCNC(=N)N)NC(=O)[C@@H](NC(=O)[C@H](CCCNC(=N)N)NC(=O)[C@@H](NC(=O)[C@@H](N)CCSC)[C@@H](C)CC)[C@@H](C)CC)[C@@H](C)O)C(=O)N[C@@H](CO)C(=O)N[C@@H](CC(=O)O)C(=O)N[C@@H](Cc1c[nH]c2ccccc12)C(=O)N[C@@H](CCCCN)C(=O)N[C@@H](CO)C(=O)N[C@@H](CC(N)=O)C(=O)N[C@H](C(=O)N[C@@H](CO)C(=O)NCC(=O)N[C@@H](CCCNC(=N)N)C(=O)N[C@@H](Cc1ccccc1)C(=O)N[C@@H](Cc1ccccc1)C(=O)N[C@@H](Cc1ccc(O)cc1)C(=O)O)[C@@H](C)O` [PF-283] (H-MIRIRSPTKKKLNRNSISDWKSNTSGRFFY-OH; N-terminus and C-terminus assumed), which MIC [1] is on record?
Its MIC is 50 µM (≈ 182 µg/mL).

What about the MIC [11] of the same molecule?
The MIC was 50 µM (≈ 182 µg/mL).

What about the MIC [2] of the same molecule?
Its MIC is 50 µM (≈ 182 µg/mL).

Which results are given for “MPVSKKRYMLSSAYATALGICYGQVATDEKESEITAIPDLLDYLSVEEYLL [PF-C163]”?
MIC [12]: 50 µM; MIC [2]: 50 µM; MIC [13]: 50 µM

Which MIC ([11]; B. subtilis, BHI, 30° C., aerobic, 10^5 CFU/ml) does the source give for `CC[C@H](C)[C@H](NC(=O)CNC(=O)[C@@H](N)CCSC)C(=O)N[C@H](C(=O)N[C@@H](C)C(=O)NCC(=O)N[C@H](C(=O)N[C@H](C(=O)N[C@@H](CCCCN)C(=O)N[C@@H](Cc1ccccc1)C(=O)N[C@H](C(=O)N[C@@H](CCCCN)C(=O)NCC(=O)N[C@@H](CC(C)C)C(=O)N[C@H](C(=O)N[C@@H](CCC(=O)O)C(=O)N[C@@H](CCCCN)C(=O)N[C@@H](Cc1ccccc1)C(=O)N[C@H](C(=O)NCC(=O)N[C@@H](CCCCN)C(=O)O)[C@@H](C)O)[C@@H](C)CC)[C@@H](C)CC)[C@@H](C)CC)[C@@H](C)CC)[C@@H](C)CC` [PF-006] here?
Its MIC is 25 µM (≈ 56.9 µg/mL).

What about the MIC [6] of the same molecule?
Its MIC is 50 µM (≈ 114 µg/mL).

And the MIC [14]?
Its MIC is 50 µM (≈ 114 µg/mL).
